# Data reported in ChEMBL document CHEMBL1201862, “PubChem BioAssay data set” (2004).
#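 Protocol summary: plate cells (96-well), add compound at 5 concentrations, incubate 48 h, interpolate endpoints linearly. GI50 marks 50% less growth.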 Calls of active or inactive are those of the source. Rule as the data show it: active = GI50 up to about 1.1 µM and inactive = higher.
# Tests used:
# Assay in all cases: NCI tumour cell line growth inhibition, 48 h
# DMS-273 = system: DMS-273
# EKVX = system: EKVX
# HL-60 = system: HL-60
# HT-29 = system: HT-29
# LOX IMVI = system: LOX IMVI
# MOLT-4 = system: MOLT-4
# NCI-H23 = system: NCI-H23
# SF-539 = system: SF-539
# XF498 = system: XF498
# BT-549 = system: BT-549
# Hs-578T = system: Hs-578T
# MCF7 = system: MCF7
# MDA-MB-435 = system: MDA-MB-435
# MDA-N = system: MDA-N
# NCI/ADR-RES = system: NCI/ADR-RES
# PC-3 = system: PC-3
# SR = system: SR
# T47D = system: T47D
# MDA-MB-231 = system: MDA-MB-231
# SNB-78 = system: SNB-78
SMILES,GI50 (DMS-273),GI50 (EKVX),GI50 (HL-60),GI50 (HT-29),GI50 (LOX IMVI),GI50 (MOLT-4),GI50 (NCI-H23),GI50 (SF-539),GI50 (XF498),GI50 (BT-549),GI50 (Hs-578T),GI50 (MCF7),GI50 (MDA-MB-435),GI50 (MDA-N),GI50 (NCI/ADR-RES),GI50 (PC-3),GI50 (SR),GI50 (T47D),GI50 (MDA-MB-231),GI50 (SNB-78)
C=CCN(N=O)C(=O)N(CCC)CCCCC(NC(C)=O)C(=O)NCc1ccccc1 (centres undefined),> 100 µM (inactive),> 100 µM (inactive),21 µM (inactive),29.2 µM (inactive),67.1 µM (inactive),22.5 µM (inactive),> 100 µM (inactive),> 100 µM (inactive),> 100 µM (inactive),,,,,,,,,,,
Nc1nc(N)c2c(n1)NC(=O)c1c(c3ccccc3n1Cc1ccc(Cl)cc1)C2,,33.2 µM (inactive),18 µM (inactive),31.3 µM (inactive),19.1 µM (inactive),6.56 µM (inactive),> 100 µM (inactive),23.9 µM (inactive),,24.2 µM (inactive),24 µM (inactive),35.3 µM (inactive),18.8 µM (inactive),16.6 µM (inactive),26.6 µM (inactive),23 µM (inactive),> 10 µM (inactive),16.8 µM (inactive),,
Fc1ccc(C(OCCN2CCC3CCC(C2)N3Cc2cc3ccccc3[nH]2)c2ccc(F)cc2)cc1 (centres undefined),,1.7 µM (inactive),1.58 µM (inactive),1.08 µM (active),1.79 µM (inactive),1.35 µM (inactive),1.58 µM (inactive),1.59 µM (inactive),,2.32 µM (inactive),1.88 µM (inactive),1.79 µM (inactive),1.88 µM (inactive),1.73 µM (inactive),1.57 µM (inactive),1.7 µM (inactive),,1.59 µM (inactive),1.7 µM (inactive),
CC1OC2=N[C@@H]1C(=O)N[C@@H](Cc1ccccc1)C1=N[C@H](C(=O)N[C@@H](Cc3ccccc3)C3=N[C@H](C(=O)N[C@H]2Cc2ccccc2)C(C)O3)C(C)O1 (some centres undefined),,49.5 µM (inactive),,20 µM (inactive),17 µM (inactive),,37.2 µM (inactive),24.2 µM (inactive),,40 µM (inactive),24.3 µM (inactive),45.9 µM (inactive),28 µM (inactive),43.2 µM (inactive),44.6 µM (inactive),22.4 µM (inactive),27.9 µM (inactive),31.1 µM (inactive),33 µM (inactive),
CC1(C)C(=O)c2ccccc2OC1N1CCN(C2Oc3ccccc3C(=O)C2(C)C)CC1 (centres undefined),,> 100 µM (inactive),> 100 µM (inactive),> 100 µM (inactive),> 100 µM (inactive),> 100 µM (inactive),> 100 µM (inactive),,,> 100 µM (inactive),61.1 µM (inactive),> 100 µM (inactive),> 100 µM (inactive),> 100 µM (inactive),> 100 µM (inactive),> 100 µM (inactive),> 100 µM (inactive),83.4 µM (inactive),94.6 µM (inactive),
O=C1NCN(c2ccccc2)C12CCN(CCCSc1ccc(F)cc1)CC2,,28.2 µM (inactive),21.8 µM (inactive),3.85 µM (inactive),10.5 µM (inactive),12.2 µM (inactive),27.7 µM (inactive),17.3 µM (inactive),,,> 42.1 µM (inactive),5.3 µM (inactive),12.8 µM (inactive),,> 48 µM (inactive),47.2 µM (inactive),15.9 µM (inactive),28.6 µM (inactive),5.52 µM (inactive),
O=C1CCCCC[C@]12SC[C@H]1CON=C12,,31 µM (inactive),25.9 µM (inactive),38.3 µM (inactive),35.2 µM (inactive),36.3 µM (inactive),94.8 µM (inactive),41.3 µM (inactive),,39.2 µM (inactive),59 µM (inactive),21.9 µM (inactive),16.7 µM (inactive),12.5 µM (inactive),25.9 µM (inactive),,9.42 µM (inactive),,,
COC(=O)c1c(O)ccc2c1c1c(n2Cc2cccc(C)c2)C(=O)c2ccccc2C1,,0.0931 µM (active),> 75 µM (inactive),10.3 µM (inactive),19.8 µM (inactive),17.1 µM (inactive),23.7 µM (inactive),17.1 µM (inactive),,26.5 µM (inactive),23.2 µM (inactive),27.9 µM (inactive),11.4 µM (inactive),,15.5 µM (inactive),9.1 µM (inactive),13.7 µM (inactive),0.348 µM (active),13.6 µM (inactive),
COc1ccc(C2C(Cl)C(=O)N2NC(=O)c2ccccc2O)cc1 (centres undefined),,> 100 µM (inactive),> 100 µM (inactive),> 100 µM (inactive),,> 100 µM (inactive),> 100 µM (inactive),> 100 µM (inactive),,,,,,,,,> 100 µM (inactive),,,
O=C1NCN(c2ccccc2)C12CCN(CCCN1CCN(CCOC(c3ccc(F)cc3)c3ccc(F)cc3)CC1)CC2,,2.88 µM (inactive),1.48 µM (inactive),1.26 µM (inactive),1.86 µM (inactive),3.15 µM (inactive),3.51 µM (inactive),1.71 µM (inactive),,2.64 µM (inactive),2.06 µM (inactive),1.92 µM (inactive),1.76 µM (inactive),1.82 µM (inactive),11 µM (inactive),3.05 µM (inactive),2.36 µM (inactive),1.58 µM (inactive),2.15 µM (inactive),
CC(=O)OCCCCn1cc(Cn2ccc(=O)n(Cc3cn(CCCCOC(C)=O)nn3)c2=O)nn1,,> 100 µM (inactive),,,> 100 µM (inactive),> 100 µM (inactive),> 100 µM (inactive),> 100 µM (inactive),,> 100 µM (inactive),> 100 µM (inactive),> 100 µM (inactive),> 100 µM (inactive),> 100 µM (inactive),> 100 µM (inactive),> 100 µM (inactive),,> 100 µM (inactive),> 100 µM (inactive),
Cn1ccnc1C(O)(c1nccn1C)c1nccn1C,,> 100 µM (inactive),> 100 µM (inactive),> 100 µM (inactive),> 100 µM (inactive),,> 100 µM (inactive),,> 100 µM (inactive),,,,,,,,> 100 µM (inactive),,,> 100 µM (inactive)
CCCCP1(=O)C=CC(Cl)=C(C)C1 (centres undefined),,> 100 µM (inactive),> 100 µM (inactive),> 100 µM (inactive),,> 100 µM (inactive),> 100 µM (inactive),> 100 µM (inactive),,,,,,,,,,,,> 100 µM (inactive)
c1ccc(/N=C2\S/C(=N\C3CCCCC3)N(C3CCCCC3)\C2=N/c2ccccc2)cc1,,,> 100 µM (inactive),> 100 µM (inactive),,37.8 µM (inactive),> 100 µM (inactive),,,> 100 µM (inactive),> 100 µM (inactive),> 100 µM (inactive),> 100 µM (inactive),> 100 µM (inactive),> 100 µM (inactive),67.1 µM (inactive),> 100 µM (inactive),> 100 µM (inactive),> 100 µM (inactive),
C=CS(=O)(=O)c1c2cc(OC)ccc2nc2ccc(OC)cc12,,8.32 µM (inactive),7.96 µM (inactive),2.54 µM (inactive),2.21 µM (inactive),2.32 µM (inactive),4.02 µM (inactive),2.51 µM (inactive),,10.5 µM (inactive),2.97 µM (inactive),2.94 µM (inactive),5.58 µM (inactive),3.5 µM (inactive),10.4 µM (inactive),7.29 µM (inactive),2.32 µM (inactive),3.43 µM (inactive),15.5 µM (inactive),
O=C1CSC(c2c(O)ccc3ccccc23)N1n1c(S)nnc(/C=C/c2c(O)ccc3ccccc23)c1=O (centres undefined),,6.15 µM (inactive),0.232 µM (active),1.27 µM (inactive),1.44 µM (inactive),17.9 µM (inactive),1.98 µM (inactive),,,0.908 µM (active),44.4 µM (inactive),0.451 µM (active),0.966 µM (active),4.05 µM (inactive),0.851 µM (active),3.18 µM (inactive),0.51 µM (active),0.59 µM (active),0.63 µM (active),
Cc1nc(-c2cccnc2)sc1C(=O)CC(=O)C(=O)Nc1cccc(NC(=O)C(=O)CC(=O)c2sc(-c3cccnc3)nc2C)n1,,> 100 µM (inactive),> 100 µM (inactive),> 100 µM (inactive),> 100 µM (inactive),> 100 µM (inactive),> 100 µM (inactive),> 100 µM (inactive),,> 100 µM (inactive),> 100 µM (inactive),> 100 µM (inactive),> 100 µM (inactive),> 100 µM (inactive),> 100 µM (inactive),> 100 µM (inactive),> 100 µM (inactive),> 100 µM (inactive),> 100 µM (inactive),
CC1(C)CCC(C)(C)c2c1ccc(O)c2Cc1c(O)ccc2c1C(C)(C)CCC2(C)C,,2.93 µM (inactive),2.76 µM (inactive),2.19 µM (inactive),1.84 µM (inactive),2.11 µM (inactive),2.04 µM (inactive),1.99 µM (inactive),,2.33 µM (inactive),2.84 µM (inactive),1.84 µM (inactive),1.87 µM (inactive),1.92 µM (inactive),2.08 µM (inactive),2 µM (inactive),2.7 µM (inactive),1.87 µM (inactive),1.66 µM (inactive),
COC(=O)C1CC=C(SC(=O)c2ccccc2)N1C(=O)c1ccccc1 (centres undefined),,> 100 µM (inactive),,> 100 µM (inactive),,> 100 µM (inactive),> 100 µM (inactive),,,> 100 µM (inactive),> 100 µM (inactive),> 100 µM (inactive),> 100 µM (inactive),> 100 µM (inactive),> 100 µM (inactive),> 100 µM (inactive),,> 100 µM (inactive),> 100 µM (inactive),
